“And” between values parts separate entries of the source, which are not always exact repeats. Equal values may be shown once. Inconclusive results and toxic doses are left out.

Consider eleven molecules from PubChem BioAssay AID184 (DTP/NCI, 2004).

The assay concerns BALB/cJ mice, ADJ-PC-6 ip tumor, median survival T/C. Nature of the assay: NCI In Vivo Anticancer Drug Screen. Data for tumor model ADJ-PC-6 (intraperitoneal) in BALB/cJ mice. Particulars: endpoint: median survival time, higher = longer survival. Here is the method:
The antitumor activity of compounds was measured in mice bearing transplantable tumors. Survival or tumor size were measured and the results are expressed as the measurement made in the treated group (T) divided by the measurement made in the vehicle treated control group (C). The tumor model used in this assay is ADJ-PC-6 (intraperitoneal) in BALB/cJ mice

The mark [1] stands for this setting: dose: 2.0 mg/kg/injection, schedule: Q04DX003 (ip), vehicle: saline.
Where [2] appears, read: dose: 10.0 mg/kg/injection, schedule: Q04DX003 (ip), vehicle: saline.
[3] abbreviates: dose: 20.0 mg/kg/injection, schedule: Q04DX003 (ip), vehicle: saline.
[4] abbreviates: dose: 3.75 mg/kg/injection, schedule: Q04DX003 (ip), vehicle: saline.
Where [5] appears, read: dose: 7.5 mg/kg/injection, schedule: Q04DX003 (ip), vehicle: saline.
[6] abbreviates: dose: 15.0 mg/kg/injection, schedule: Q04DX003 (ip), vehicle: saline.
Setting [7] is: dose: 30.0 mg/kg/injection, schedule: Q04DX003 (ip), vehicle: saline.
The mark [8] stands for this setting: dose: 60.0 mg/kg/injection, schedule: Q04DX003 (ip), vehicle: saline.
[9] abbreviates: dose: 40.0 mg/kg/injection, schedule: Q04DX003 (ip), vehicle: saline.
Setting [10] is: dose: 80.0 mg/kg/injection, schedule: Q04DX003 (ip), vehicle: saline.

`CN1N=C(N)c2cn(C3OC(COP(=O)(O)O)C(O)C3O)c3ncnc1c23` (configuration not stated): the T/C is 222 % of control (dose: 12.5 mg/kg/injection, schedule: Q04DX003 (ip), vehicle: saline); 471 % of control (dose: 12.5 mg/kg/injection, schedule: Q04DX003 (ip), vehicle: water); 222 % of control (dose: 25.0 mg/kg/injection, schedule: Q04DX003 (ip), vehicle: saline); 471 % of control (dose: 25.0 mg/kg/injection, schedule: Q04DX003 (ip), vehicle: water); 222 % of control and 275 % of control and 369 % of control (dose: 50.0 mg/kg/injection, schedule: Q04DX003 (ip), vehicle: saline); 471 % of control (dose: 50.0 mg/kg/injection, schedule: Q04DX003 (ip), vehicle: water). For the same molecule, the T/C is, setting by setting: (dose: 100.0 mg/kg/injection, schedule: Q04DX003 (ip), vehicle: saline) 222 % of control and 275 % of control and 369 % of control; (dose: 100.0 mg/kg/injection, schedule: Q04DX003 (ip), vehicle: water) 471 % of control; (dose: 200.0 mg/kg/injection, schedule: Q04DX003 (ip), vehicle: saline) 275 % of control and 369 % of control.

Regarding `ClCC[N+]12CC[N+](CCCl)(CC1)C2`, the T/C runs as follows: (dose: 10.0 mg/kg/injection, schedule: Q01DX009 (ip), vehicle: saline) 88 % of control and 96 % of control and 111 % of control; (dose: 20.0 mg/kg/injection, schedule: Q01DX009 (ip), vehicle: saline) 100 % of control and 103 % of control; (dose: 40.0 mg/kg/injection, schedule: Q01DX009 (ip), vehicle: saline) 106 % of control; (dose: 80.0 mg/kg/injection, schedule: Q01DX009 (ip), vehicle: saline) 107 % of control and 113 % of control (2×); (dose: 160.0 mg/kg/injection, schedule: Q01DX009 (ip), vehicle: saline) 96 % of control and 102 % of control and 103 % of control.

In the case of `O=C1NC(=O)C2C3C=CC(C12)C1C2C(=O)NC(=O)C2C31` (configuration not stated), the T/C (dose: 5.0 mg/kg/injection, schedule: Q01DX009 (ip), vehicle: saline with Tween-80) was 110 % of control; the T/C (dose: 10.0 mg/kg/injection, schedule: Q01DX009 (ip), vehicle: saline with Tween-80) was 88 % of control and 103 % of control; the T/C (dose: 80.0 mg/kg/injection, schedule: Q01DX009 (ip), vehicle: saline with Tween-80) was 235 % of control.

As to `Nc1ncn(C2OC(CO)C(O)C2O)c(=O)n1` (configuration not stated), the T/C is 120 % of control under setting [1]; 157 % of control (dose: 8.0 mg/kg/injection, schedule: Q04DX003 (ip), vehicle: saline); 185 % of control under setting [2]; 219 % of control under setting [3]; 235 % of control (dose: 32.0 mg/kg/injection, schedule: Q04DX003 (ip), vehicle: saline).

For the molecule `Cc1c(N)nc([C@H](CC(N)=O)NC[C@H](N)C(N)=O)nc1C(=O)N[C@H](C(=O)N[C@H](C)[C@@H](O)[C@H](C)C(=O)N[C@H](C(=O)NCCc1nc(-c2nc(C(=O)NCCC[S+](C)C)cs2)cs1)[C@@H](C)O)C(OC1OC(CO)C(O)C(O)C1OC1OC(CO)C(O)C(OC(N)=O)C1O)c1cnc[nH]1` (some centres not stated), the T/C is, setting by setting: under setting [4], 101 % of control and 108 % of control; under setting [5], 89 % of control and 116 % of control; under setting [6], 102 % of control; under setting [7], 105 % of control and 112 % of control; under setting [8], 106 % of control and 116 % of control.

For `O=C1c2c(O)ccc(O)c2C(=O)c2c(NCCNCCO)ccc(NCCNCCO)c21`, the T/C is, setting by setting: (dose: 0.38 mg/kg/injection, schedule: Q04DX003 (ip), vehicle: saline) 155 % of control and 267 % of control; (dose: 0.38 mg/kg/injection, schedule: Q04DX003 (iv), vehicle: saline) 89 % of control; (dose: 0.5 mg/kg/injection, schedule: Q04DX003 (ip), vehicle: saline) 188 % of control; (dose: 0.5 mg/kg/injection, schedule: Q04DX003 (ip), vehicle: water) 186 % of control; (dose: 0.75 mg/kg/injection, schedule: Q04DX003 (ip), vehicle: saline) 179 % of control and 267 % of control; (dose: 1.0 mg/kg/injection, schedule: Q04DX003 (ip), vehicle: saline) 207 % of control. Also, the T/C (dose: 1.0 mg/kg/injection, schedule: Q04DX003 (ip), vehicle: water) was 195 % of control; the T/C (dose: 1.5 mg/kg/injection, schedule: Q04DX003 (ip), vehicle: saline) is 194 % of control and 267 % of control; the T/C (dose: 1.5 mg/kg/injection, schedule: Q04DX003 (iv), vehicle: saline) was 153 % of control and 217 % of control; the T/C under setting [1] was 342 % of control; the T/C (dose: 2.0 mg/kg/injection, schedule: Q04DX003 (ip), vehicle: water) is 235 % of control; the T/C (dose: 3.0 mg/kg/injection, schedule: Q04DX003 (ip), vehicle: saline) is 194 % of control and 267 % of control. For the same molecule, the T/C reads like this: (dose: 3.0 mg/kg/injection, schedule: Q04DX003 (iv), vehicle: saline) 155 % of control and 232 % of control; (dose: 4.0 mg/kg/injection, schedule: Q04DX003 (ip), vehicle: saline) 160 % of control; (dose: 6.0 mg/kg/injection, schedule: Q04DX003 (iv), vehicle: saline) 179 % of control and 267 % of control.

As to `CC1=C(C)C(=O)O[C@@H]([C@](C)(O)[C@]2(O)CC[C@@]3(O)[C@@H]4C[C@H]5O[C@]56[C@@H](O)C=CC(=O)[C@]6(C)[C@H]4CC[C@]23C)C1`, the T/C is 111 % of control (dose: 1.0 mg/kg/injection, schedule: Q01DX009 (ip), vehicle: saline + alcohol); 104 % of control (dose: 1.0 mg/kg/injection, schedule: Q01DX009 (ip), vehicle: saline with Tween-80); 96 % of control (dose: 2.0 mg/kg/injection, schedule: Q01DX009 (ip), vehicle: saline + alcohol); 107 % of control (dose: 2.0 mg/kg/injection, schedule: Q01DX009 (ip), vehicle: saline with Tween-80); 98 % of control (dose: 4.0 mg/kg/injection, schedule: Q01DX009 (ip), vehicle: saline + alcohol); 97 % of control (dose: 4.0 mg/kg/injection, schedule: Q01DX009 (ip), vehicle: saline with Tween-80). Further, the T/C runs as follows: (dose: 8.0 mg/kg/injection, schedule: Q01DX009 (ip), vehicle: saline + alcohol) 114 % of control; (dose: 8.0 mg/kg/injection, schedule: Q01DX009 (ip), vehicle: saline with Tween-80) 106 % of control.

Take `CCCCCCCC(=O)N/N=C(\CO)[C@]1(O)Cc2c(O)c3c(c(O)c2[C@@H](OC2CC(N)C(O)C(C)O2)C1)C(=O)c1c(OC)cccc1C3=O` (some centres not stated): the T/C (dose: 5.0 mg/kg/injection, schedule: Q04DX003 (ip), vehicle: saline) is 165 % of control; the T/C under setting [2] was 242 % of control; the T/C under setting [3] is 180 % of control; the T/C under setting [9] was 226 % of control; the T/C under setting [10] was 118 % of control.

For the molecule `CC[C@](O)(C(=O)O)c1cc2n(c(=O)c1CO)Cc1cc3ccccc3nc1-2`, the T/C is 111 % of control under setting [4]; 120 % of control under setting [5]; 158 % of control under setting [2]; 115 % of control under setting [6]; 185 % of control under setting [3]; 158 % of control under setting [7]. Besides, the T/C under setting [9] is 174 % of control, the T/C under setting [8] is 188 % of control and the T/C under setting [10] is 196 % of control.

As for `O=NN(CCCl)C(=O)NCCCl`, the T/C was 106 % of control (dose: 1.25 mg/kg/injection, schedule: Q04DX003 (ip), vehicle: saline + alcohol); 101 % of control and 178 % of control and 248 % of control (dose: 5.0 mg/kg/injection, schedule: Q04DX003 (ip), vehicle: saline + alcohol); 150 % of control and 322 % of control (dose: 10.0 mg/kg/injection, schedule: Q04DX003 (ip), vehicle: saline + alcohol); 222 % of control and 235 % of control and 355 % of control (dose: 20.0 mg/kg/injection, schedule: Q04DX003 (ip), vehicle: saline + alcohol); 92 % of control and 235 % of control (dose: 40.0 mg/kg/injection, schedule: Q04DX003 (ip), vehicle: saline + alcohol).

For the molecule `[Cl][Pt+2][Cl].[NH-]C1CCC1.[NH2-]`, the T/C is 216 % of control (dose: 1.04 mg/kg/injection, schedule: Q04DX003 (ip), vehicle: water); 265 % of control (dose: 1.73 mg/kg/injection, schedule: Q04DX003 (ip), vehicle: water); 301 % of control (dose: 2.88 mg/kg/injection, schedule: Q04DX003 (ip), vehicle: water).
